Results published in ChEMBL document CHEMBL1201862, “PubChem BioAssay data set” (2004).
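Where inhibition never reached the appropriate level, the endpoint shown equals the highest concentration tested. Otherwise, values were interpolated linearly from a five-concentration, 48-hour dose response in 96-well plates. Abbreviation: GI50, concentration required for 50% inhibition of growth.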 Calls of active or inactive are those of the source. Cut-off read from the data, not from the text of the source: active = GI50 up to about 1.1 µM and inactive = higher.

Assays:
Assay in all cases: NCI-60 cell line screen, 48 h
SK-OV-3 = system: SK-OV-3
UACC-257 = system: UACC-257
MDA-MB-435 = system: MDA-MB-435
OVCAR-5 = system: OVCAR-5
SK-MEL-5 = system: SK-MEL-5
HCT-116 = system: HCT-116
NCI/ADR-RES = system: NCI/ADR-RES
OVCAR-4 = system: OVCAR-4
CAKI-1 = system: CAKI-1
SNB-75 = system: SNB-75
786-0 = system: 786-0
MDA-N = system: MDA-N
UACC-62 = system: UACC-62
M14 = system: M14
K562 = system: K562
HL-60 = system: HL-60
MCF7 = system: MCF7
SN12C = system: SN12C
U-251 = system: U-251
BT-549 = system: BT-549
TK-10 = system: TK-10
HCC 2998 = system: HCC 2998
NCI-H23 = system: NCI-H23
ACHN = system: ACHN
HT-29 = system: HT-29
SK-MEL-2 = system: SK-MEL-2
SF-539 = system: SF-539
HCT-15 = system: HCT-15
MDA-MB-231 = system: MDA-MB-231
OVCAR-8 = system: OVCAR-8
T47D = system: T47D
SK-MEL-28 = system: SK-MEL-28
SF-268 = system: SF-268
Hs-578T = system: Hs-578T
MOLT-4 = system: MOLT-4
SW-620 = system: SW-620
HOP-92 = system: HOP-92
NCI-H522 = system: NCI-H522
LOX IMVI = system: LOX IMVI
OVCAR-3 = system: OVCAR-3
NCI-H460 = system: NCI-H460
SF-295 = system: SF-295
EKVX = system: EKVX
HOP-62 = system: HOP-62
COLO 205 = system: COLO 205
IGROV-1 = system: IGROV-1
NCI-H226 = system: NCI-H226
Malme-3M = system: Malme-3M
A549 = system: A549
RPMI-8226 = system: RPMI-8226
SR = system: SR
DU-145 = system: DU-145
SNB-19 = system: SNB-19
A498 = system: A498
KM12 = system: KM12
PC-3 = system: PC-3
RXF 393 = system: RXF 393
UO-31 = system: UO-31
CCRF-CEM = system: CCRF-CEM

Measured: GI50

C#CCSc1nc(-c2ccco2)n[nH]1
> 100 µM: HCT-15
inactive: SK-OV-3 > 100 µM | UACC-257 > 100 µM | MDA-MB-435 > 100 µM | OVCAR-5 > 100 µM | SK-MEL-5 > 100 µM | HCT-116 > 100 µM | NCI/ADR-RES > 100 µM | OVCAR-4 > 100 µM | CAKI-1 > 100 µM | SNB-75 > 100 µM | 786-0 > 100 µM | MDA-N > 100 µM | UACC-62 > 100 µM | M14 > 100 µM | K562 > 100 µM | HL-60 > 100 µM | MCF7 > 100 µM | SN12C > 100 µM | U-251 > 100 µM | BT-549 > 100 µM | TK-10 > 100 µM | HCC 2998 > 100 µM | NCI-H23 > 100 µM | ACHN > 100 µM | HT-29 > 100 µM | SK-MEL-2 > 100 µM | SF-539 > 100 µM | MDA-MB-231 > 100 µM | OVCAR-8 > 100 µM | T47D > 100 µM | SK-MEL-28 > 100 µM | SF-268 > 100 µM | Hs-578T > 100 µM | MOLT-4 > 100 µM | SW-620 > 100 µM | HOP-92 > 100 µM | NCI-H522 > 100 µM | LOX IMVI > 100 µM | OVCAR-3 > 100 µM | NCI-H460 > 100 µM | SF-295 > 100 µM | EKVX > 100 µM | HOP-62 49.3 µM | COLO 205 > 100 µM | IGROV-1 48.5 µM | NCI-H226 > 100 µM | Malme-3M > 100 µM | A549 > 100 µM | RPMI-8226 > 100 µM | SR > 100 µM | DU-145 > 100 µM | SNB-19 > 100 µM | A498 > 100 µM | KM12 > 100 µM | PC-3 > 100 µM | RXF 393 > 100 µM | UO-31 17.2 µM

O=C(O)Cc1cc(Cl)ccc1O
> 100 µM: HCT-15
inactive: SK-OV-3 > 100 µM | UACC-257 > 100 µM | MDA-MB-435 > 100 µM | OVCAR-5 > 100 µM | SK-MEL-5 > 100 µM | CCRF-CEM > 100 µM | HCT-116 > 100 µM | NCI/ADR-RES > 100 µM | OVCAR-4 > 100 µM | CAKI-1 > 100 µM | SNB-75 > 100 µM | 786-0 > 100 µM | MDA-N > 100 µM | UACC-62 > 100 µM | M14 > 100 µM | HL-60 > 100 µM | MCF7 > 100 µM | SN12C > 100 µM | U-251 > 100 µM | BT-549 > 100 µM | TK-10 > 100 µM | HCC 2998 > 100 µM | NCI-H23 > 100 µM | ACHN > 100 µM | HT-29 > 100 µM | SK-MEL-2 > 100 µM | SF-539 > 100 µM | MDA-MB-231 > 100 µM | OVCAR-8 > 100 µM | T47D > 100 µM | SK-MEL-28 > 100 µM | SF-268 > 100 µM | Hs-578T > 100 µM | SW-620 > 100 µM | HOP-92 > 100 µM | NCI-H522 > 100 µM | LOX IMVI > 100 µM | OVCAR-3 > 100 µM | NCI-H460 > 100 µM | SF-295 > 100 µM | EKVX > 100 µM | HOP-62 > 100 µM | COLO 205 > 100 µM | IGROV-1 > 100 µM | NCI-H226 > 100 µM | Malme-3M > 100 µM | A549 > 100 µM | RPMI-8226 > 100 µM | SR > 76.9 µM | DU-145 > 100 µM | SNB-19 > 100 µM | A498 > 100 µM | KM12 > 100 µM | PC-3 > 100 µM | RXF 393 > 100 µM | UO-31 > 100 µM

Cc1cc(N(CCCl)CCCl)ccc1/C=N/NC(=O)Cc1cc(=O)oc2cc(O)ccc12
inactive: UACC-257 20.8 µM | MDA-MB-435 11.2 µM | OVCAR-5 31.6 µM | SK-MEL-5 8.51 µM | CCRF-CEM 6.38 µM | HCT-116 17.5 µM | NCI/ADR-RES 37.6 µM | OVCAR-4 16.6 µM | CAKI-1 6.4 µM | SNB-75 28.6 µM | 786-0 18.8 µM | MDA-N 12.7 µM | UACC-62 2.37 µM | M14 14.3 µM | K562 9.18 µM | HL-60 12.2 µM | MCF7 5.83 µM | SN12C 16 µM | U-251 14.2 µM | BT-549 13.4 µM | HCC 2998 28.2 µM | NCI-H23 19.5 µM | ACHN 6.67 µM | HT-29 14.7 µM | SK-MEL-2 32.3 µM | SF-539 18 µM | MDA-MB-231 30.6 µM | OVCAR-8 19.5 µM | T47D 6.85 µM | SK-MEL-28 12.6 µM | SF-268 10.2 µM | Hs-578T 17.2 µM | MOLT-4 5.6 µM | SW-620 21.4 µM | HOP-92 27 µM | NCI-H522 13.7 µM | LOX IMVI 12.6 µM | OVCAR-3 21.3 µM | NCI-H460 8.93 µM | SF-295 17.2 µM | EKVX 20.4 µM | HOP-62 19 µM | COLO 205 17.7 µM | IGROV-1 15.8 µM | NCI-H226 15.7 µM | Malme-3M 12.6 µM | A549 12.2 µM | RPMI-8226 16 µM | SR 7.08 µM | DU-145 18.5 µM | SNB-19 18 µM | A498 13.7 µM | KM12 16.6 µM | PC-3 11.9 µM | RXF 393 16.6 µM | UO-31 22.9 µM
14.4 µM: HCT-15

CC1C(C#N)(C#N)C(C#N)=C(N)C1(Cl)[N+](=O)[O-] (stereo unspecified)
inactive: SK-OV-3 17 µM | UACC-257 12 µM | MDA-MB-435 16.7 µM | OVCAR-5 14.9 µM | SK-MEL-5 12.1 µM | CCRF-CEM 2.18 µM | HCT-116 7.19 µM | NCI/ADR-RES 16 µM | OVCAR-4 12.8 µM | CAKI-1 5.4 µM | SNB-75 11.7 µM | 786-0 5.48 µM | MDA-N 9.04 µM | UACC-62 11.4 µM | M14 5.07 µM | K562 2.88 µM | HL-60 2.37 µM | MCF7 17.2 µM | SN12C 8.18 µM | U-251 17.1 µM | BT-549 13.3 µM | TK-10 14.9 µM | HCC 2998 17.3 µM | NCI-H23 18.7 µM | ACHN 11.3 µM | HT-29 9.04 µM | SK-MEL-2 25.6 µM | SF-539 11.5 µM | MDA-MB-231 13.2 µM | OVCAR-8 14.9 µM | T47D 15.7 µM | SF-268 14.9 µM | Hs-578T 16.1 µM | MOLT-4 1.72 µM | SW-620 2.17 µM | HOP-92 2.08 µM | NCI-H522 2.3 µM | LOX IMVI 5.32 µM | OVCAR-3 10 µM | SF-295 18.8 µM | EKVX 17.8 µM | HOP-62 3.08 µM | COLO 205 4.9 µM | IGROV-1 7.45 µM | NCI-H226 17.1 µM | Malme-3M 5.71 µM | A549 21.7 µM | RPMI-8226 11.2 µM | SR 5.01 µM | DU-145 16.7 µM | SNB-19 19.3 µM | A498 17.4 µM | KM12 18.7 µM | PC-3 17.7 µM | RXF 393 4.33 µM | UO-31 15.5 µM
3.39 µM: HCT-15

CCC(=O)NC(Nc1cccc(F)c1C)(C(F)(F)F)C(F)(F)F
> 100 µM: HCT-15
inactive: SK-OV-3 > 100 µM | UACC-257 > 100 µM | MDA-MB-435 > 100 µM | OVCAR-5 > 100 µM | SK-MEL-5 > 100 µM | CCRF-CEM > 100 µM | HCT-116 > 100 µM | NCI/ADR-RES > 100 µM | CAKI-1 > 100 µM | SNB-75 > 100 µM | 786-0 > 100 µM | MDA-N > 100 µM | UACC-62 > 100 µM | M14 > 100 µM | K562 > 100 µM | HL-60 > 100 µM | MCF7 > 100 µM | U-251 > 100 µM | BT-549 > 100 µM | TK-10 > 100 µM | HCC 2998 > 100 µM | NCI-H23 > 100 µM | ACHN > 100 µM | HT-29 > 100 µM | SK-MEL-2 > 100 µM | SF-539 > 100 µM | MDA-MB-231 > 100 µM | OVCAR-8 > 100 µM | T47D > 100 µM | SK-MEL-28 > 100 µM | SF-268 > 100 µM | Hs-578T 54.5 µM | MOLT-4 > 100 µM | SW-620 > 100 µM | HOP-92 > 100 µM | NCI-H522 > 100 µM | LOX IMVI > 100 µM | OVCAR-3 > 100 µM | NCI-H460 > 100 µM | SF-295 > 100 µM | EKVX > 100 µM | HOP-62 > 100 µM | COLO 205 > 100 µM | IGROV-1 > 100 µM | NCI-H226 > 100 µM | Malme-3M > 100 µM | A549 > 100 µM | RPMI-8226 > 100 µM | SR 75.3 µM | DU-145 > 100 µM | SNB-19 > 100 µM | A498 > 100 µM | KM12 > 100 µM | PC-3 > 100 µM | RXF 393 3.88 µM | UO-31 94.6 µM
